Measured values taken from patent publication US20220009914A1, “Analogs of Nitrofuran Antibiotics to Combat Resistance” (The Trustees of Indiana University, priority 2020, published 2022).
pEC50, pIC50: −log10 of the molar value. Read-outs that look alike come from different tables or passages of the source.

How the values were obtained:
[1] = test system: E. coli and the ESKAPE bacteria; test: bacterial proliferation assays, whole panel (results in words); format: cell-based
Method: (§1) All compounds were evaluated for inhibiting the proliferation of E. coli and each of the ESKAPE bacteria. Results presented represent the averages of EC50 values obtained from at least four replicates. Evaluating compounds for inhibition of bacterial cell proliferation.
(§2) Growth Media: E. coli were grown with LB medium and all ESKAPE bacteria were grown in Brain Heart Infusion (BHI) medium (Becton, Dickinson and Company), with all liquid cultures supplemented with 25 mg/L Ca^2+ and 12.5 mg/L Mg^2+ to mimic physiological free concentrations of these cations. A 10 mg/mL Ca^2+ stock solution was prepared by dissolving 1.84 g of CaCl2.2H2O in 50 mL of deionized water, and a 10 mg/mL Mg^2+ stock solution was prepared by dissolving 4.18 g of MgCl2.6H2O in 50 mL deionized water—filter sterilized using 0.2 μm cellulose-acetate filters. 2.5 mL of the sterile 10 mg/mL Ca^2+ stock and 1.25 mL of the sterile 10 mg/mL Mg^2+ stock solutions were added per 1 L of autoclaved LB or BHI media to obtain 25 mg/L Ca^2+ and 12.5 mg/L Mg^2+ ions, respectively.
General Assay Protocol: Stock bacterial cultures were streaked onto LB or BHI agar plates and grown overnight at 37° C. Fresh aliquots of cation supplemented media were inoculated with single bacterial colonies and the cultures were grown overnight at 37° C. with shaking (240 rpm). […] The cultures were then diluted into fresh media to achieve final OD600 readings of 0.017. […] A second set of baseline control plates were prepared analogously, but without any bacteria added, to correct for possible compound absorbance and/or precipitation. […] Plates were then read at 600 nm using a Molecular Devices SpectraMax Plus384 microplate reader. […]
Evaluating analogs for inhibiting the growth of E. coli and the ESKAPE bacteria. […] After addition of compounds to cultures, the plates were sealed with Breathe-Easy gas permeable membranes and allowed to grow to mid-log phase (OD600˜0.4-0.6), whereupon final OD600 readings were taken to assess for bacterial growth and inhibition.

[2] = test system: NEB 5-alpha Escherichia coli; test: bacterial proliferation assay, E. coli; format: cell-based; settings: for pEC50: read-out: Bacterial Proliferation EC50 E. coli
Method: as §1, §2
General Assay Protocol: Stock bacterial cultures were streaked onto LB or BHI agar plates and grown overnight at 37° C. Fresh aliquots of cation supplemented media were inoculated with single bacterial colonies and the cultures were grown overnight at 37° C. with shaking (240 rpm). The following morning, cultures were diluted 10-fold into fresh media and grown at 37° C. until bacteria had reached mid-log phase growth (OD600˜0.4-0.6). The cultures were then diluted into fresh media to achieve final OD600 readings of 0.017. Aliquots of these diluted cultures (30 μL) were added to clear, flat-bottom 384-well polystyrene plates that were previously stamped with 0.5 μL of test compounds in 20 μL of media (yielding initial OD600=0.01 bacterial cultures). All compounds were tested in dose-response with concentration ranges during the proliferation assays from 100 μM to 46 nM (3-fold dilution series). A second set of baseline control plates were prepared analogously, but without any bacteria added, to correct for possible compound absorbance and/or precipitation. […] Plates were then read at 600 nm using a Molecular Devices SpectraMax Plus384 microplate reader. […] Results presented represent the averages of EC50 values obtained from at least four replicates.
Evaluating analogs for inhibiting the growth of E. coli and the ESKAPE bacteria. Analogs were initially tested for antibacterial efficacy against representative strains of antibiotic-sensitive E. coli and the ESKAPE bacteria. To determine compound efficacy, bacterial proliferation assays were carried out in liquid media culture supplemented with physiological concentrations of free calcium and magnesium cations. For these assays, bacterial cultures (OD600=0.01) were exposed to test compounds in 8-point, 3-fold dilution series (100 μM to 46 nM concentration range), in 384-well plates. After addition of compounds to cultures, the plates were sealed with Breathe-Easy gas permeable membranes and allowed to grow to mid-log phase (OD600˜0.4-0.6), whereupon final OD600 readings were taken to assess for bacterial growth and inhibition.

native MDH = target: T1, native MDH (Sus scrofa, UniProt P00346); test: native MDH activity counter-screen in the presence of E. coli NfsB nitroreductase; format: biochemical, pig
T1 sequence (P00346 25-338): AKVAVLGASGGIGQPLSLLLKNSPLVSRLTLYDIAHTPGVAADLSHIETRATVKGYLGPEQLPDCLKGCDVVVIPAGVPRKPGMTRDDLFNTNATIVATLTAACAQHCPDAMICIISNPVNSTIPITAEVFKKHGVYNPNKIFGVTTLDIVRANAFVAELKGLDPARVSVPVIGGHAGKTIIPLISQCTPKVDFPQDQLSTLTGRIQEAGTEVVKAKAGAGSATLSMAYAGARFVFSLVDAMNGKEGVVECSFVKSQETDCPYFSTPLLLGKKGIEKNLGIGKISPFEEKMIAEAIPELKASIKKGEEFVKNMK
Method: Evaluating compounds for inhibition in the GroEL/ES-mediated dMDH refolding assay and native MDH activity counter-screen in the presence of E. coli NfsB nitroreductase. These assays were performed nearly identically to those mentioned above, but with a couple distinct modifications. […] The remainder of the assay was conducted as in our standard protocol where no NfsB nitroreductase was present. […] Results presented represent the averages of IC50 values obtained from at least four replicates in each assay.

FHC colon cells = test: in vitro; settings: for CC50: human, 48 h
Method: (§3) Evaluating compound effects on the viability of human colon and small intestine cells. […] Evaluating compound effects on the viability of human colon and small intestine cells. Evaluation of compound cytotoxicities to FHC colon and FHs 74 Int small intestine cells were performed using Alamar Blue-based viability assays. […] FHs 74 Int cells were maintained in Hybri-care medium (ATCC 46-X) supplemented with 30 ng/mL recombinant epidermal growth factor (EGF) and 10% FBS (Midwest Scientific, USDAFBS).

[3] = test system: FHs 74 Int small intestine cells; test: in vitro; settings: for CC50: human, 48 h
Method: as §3

in vitro [4] = settings: human
Method: as §3

in vitro [5] = settings: human; remark: listed apart in the source
Method: as §3

NEB 5-alpha E. coli = test: microbe, parasite or virus in culture; format: cell-based, Escherichia coli
Method: Evaluating the ability of E. coli to generate resistance to lead inhibitors. […] NEB 5-alpha E. coli bacteria were streaked onto an LB agar plate and grown overnight at 37° C. […] The overnight cultures were then sub-cultured (10× dilution) into fresh media solutions and grown at 37° C. to mid-log phase, then diluted into fresh media to achieve two separate cultures with final OD600 readings of 0.01. […] Test compounds were evaluated in duplicate with concentration ranges during the resistance assay from 100 μM to 48.8 nM, 2-fold dilution series. […] OD600 readings were taken at the 24 h time point to monitor for bacterial growth. A second baseline control plate was prepared analogously, without any bacteria added, to correct for possible compound absorbance and/or precipitation. For inoculations on subsequent days, bacteria from the wells with the highest test compound concentration where the OD600 was >0.2, were sub-cultured in 5 mL of fresh media at 37° C. until mid-log phase growth was reached. Separate cultures were maintained from this point forward for each of the compound replicates—i.e. 6 cultures continually propagated. The bacteria were then diluted into fresh media to OD600 of 0.01 and the bacteria were propagated again as described above.

[6] = E. coli and the ESKAPE pathogens
[7] = with E. coli NfsB nitroreductase, read-out: Native MDH Activity w/NfsB IC50

| Compound | pEC50 ([2]; Escherichia coli) | pIC50 (native MDH; [7]) | CC50 (FHC colon cells) | CC50 [3] | CC50 at 48 h (in vitro [4]) | CC50 at 48 h (in vitro [5]) | other results |
| --- | --- | --- | --- | --- | --- | --- | --- |
| O=Cc1ccc([N+](=O)[O-])o1 [Compound 41, reference compound] | 5.02 | < 4.25 | – | – | – | – | antibacterial efficacy in words [1, 6]: potent inhibitors of nearly all the bacteria (excluding P. aeruginosa) |
| O=C(N/N=C/c1ccc([N+](=O)[O-])o1)c1ccncc1 [Compound 19, N′-((5-nitrofuran-2-yl)methylene)isonicotinohydrazide] | 5.62 | – | 61 µM | 90 µM | – | – | SI (CC50/EC50) Colon (FHC colon cells): 26; SI (CC50/EC50) Intestine [3]: 38 |
| O=C(N/N=C/c1ccc([N+](=O)[O-])o1)c1cccs1 [Compound 16, N′-((5-nitrofuran-2-yl)methylene)thiophene-2-carbohydrazide] | – | – | 83 µM | 71 µM | – | – | pEC50 [2]: 6.38; SI (CC50/EC50) Colon (FHC colon cells): 198; SI (CC50/EC50) Intestine [3]: 168; cytotoxicity to human cells in words [3]: low to no cytotoxicity |
| COc1ccc(C(=O)N/N=C/c2ccc([N+](=O)[O-])o2)cc1 [Compound 20, 4-methoxy-N′-((5-nitrofuran-2-yl)methylene)benzohydrazide] | 5.72 | – | > 100 µM | 75 µM | – | – | SI (CC50/EC50) Colon (FHC colon cells): >53; SI (CC50/EC50) Intestine [3]: 40; cytotoxicity to human cells in words [3]: low to no cytotoxicity |
| O=Cc1ccc(O)c2ncccc12 [Compound 40, reference compound] | 4.85 | < 4.25 | – | – | – | – | antibacterial efficacy in words [1, 6]: potent inhibitors of nearly all the bacteria (excluding P. aeruginosa) |
| COc1ccc(C(=O)N/N=C/c2ccco2)cc1 [Compound 39, N′-(furan-2-ylmethylene)-4-methoxybenzohydrazide] | < 4.00 | < 4.25 | – | – | > 100 µM | > 100 µM | – |
| O=C(N/N=C/c1ccccc1)c1ccccc1 [Compound 38, N′-benzylidenebenzohydrazide] | < 4.00 | < 4.25 | – | – | > 100 µM | > 100 µM | – |
| O=C(N/N=C/c1ccc(O)c2ncccc12)c1ccc(O)cc1 [Compound 7, 4-hydroxy-N′-((8-hydroxyquinolin-5-yl)methylene)benzohydrazide] | 4.34 | < 4.25 | – | – | > 100 µM | 67 µM | – |
| COc1ccc(C(=O)N/N=C/c2cccc3ccccc23)cc1 [Compound 33, 4-methoxy-N′-(naphthalen-1-ylmethylene)benzohydrazide] | < 4.00 | < 4.25 | – | – | > 100 µM | > 100 µM | – |
| O=C(N/N=C/c1ccc([N+](=O)[O-])o1)c1ccccc1 [Compound 18, N′-((5-nitrofuran-2-yl)methylene)benzohydrazide] | 5.68 | – | > 100 µM | 94 µM | – | – | SI (CC50/EC50) Colon (FHC colon cells): >48; SI (CC50/EC50) Intestine [3]: 45 |
| COc1ccc(C(=O)N/N=C/c2cccc3ncccc23)cc1 [Compound 31, 4-methoxy-N′-(quinolin-5-ylmethylene)benzohydrazide] | < 4.00 | < 4.25 | – | – | > 100 µM | > 100 µM | – |
| O=C(N/N=C/c1ccc([N+](=O)[O-])o1)c1ccc(NS(=O)(=O)c2ccc(Br)cc2)cc1 [Compound 27, 4-bromo-N-(4-(2-((5-nitrofuran-2-yl)methylene)hydrazine-1-carbonyl)phenyl)benzenesulfonamide] | < 4.00 | – | – | – | 90 µM | > 100 µM | pIC50 (native MDH): < 4.25 |
| O=C1CN(/N=C/c2ccc([N+](=O)[O-])o2)C(=O)N1 [Nitrofurantoin, reference compound] | 6.16 | – | > 100 µM | > 100 µM | – | – | inhibition of E. coli proliferation in words [2]: potent inhibitors; SI (CC50/EC50) Colon (FHC colon cells; CC50 colon cells over EC50 E. coli proliferation): >146; cytotoxicity to human cells in words [3]: low to no cytotoxicity; SI (CC50/EC50) Intestine ([3]; CC50 intestine cells over EC50 E. coli proliferation): >146; resistance of the maximally-resistant strain to its inhibitor after passaging without compound (NEB 5-alpha E. coli; 4×12 h serial passages without test compounds, then 24 h proliferation assay): still resistant; pEC50 (NEB 5-alpha E. coli; Escherichia coli, read-out: EC50 plateau after intermediate resistance): 4.40 to 4.70 |
| O=C(N/N=C/c1ccc(O)cc1)c1ccccc1 [Compound 36, N′-(4-hydroxybenzylidene)benzohydrazide] | < 4.00 | < 4.25 | – | – | > 100 µM | > 100 µM | – |
| O=C(N/N=C/c1ccc(O)c2ncccc12)c1cccs1 [Compound 3, N′-((8-hydroxyquinolin-5-yl)methylene)thiophene-2-carbohydrazide] | 4.11 | < 4.25 | – | – | 85 µM | 86 µM | – |
| CN(C)c1ccc(C(=O)N/N=C/c2ccc([N+](=O)[O-])o2)cc1 [Compound 21, 4-(dimethylamino)-N′-((5-nitrofuran-2-yl)methylene)benzohydrazide] | 5.00 | – | > 100 µM | 93 µM | – | – | antibacterial efficacy in words ([1]; Gram-positive E. faecium and S. aureus): less effective (or inactive); SI (CC50/EC50) Colon (FHC colon cells): >10; SI (CC50/EC50) Intestine [3]: 9.3 |
| COc1ccc(C(=O)N/N=C/c2ccc(O)c3ccccc23)cc1 [Compound 29, N′-((4-hydroxynaphthalen-1-yl)methylene)-4-methoxybenzohydrazide] | < 4.00 | < 4.25 | – | – | > 100 µM | > 100 µM | – |
